Measured values reported in paper PMC4581293, “Structure-Based Optimization of Inhibitors of the Aspartic Protease Endothiapepsin” (International Journal of Molecular Sciences, 2015).

Target: T1, endothiapepsin (Cryphonectria parasitica, UniProt P11838)
T1 construct: Endothiapepsin was purified from Suparen; purchased DSM Food Specialties, Heerlen, The Netherlands (kindly provided) Suparen
T1 sequence (P11838 90-419): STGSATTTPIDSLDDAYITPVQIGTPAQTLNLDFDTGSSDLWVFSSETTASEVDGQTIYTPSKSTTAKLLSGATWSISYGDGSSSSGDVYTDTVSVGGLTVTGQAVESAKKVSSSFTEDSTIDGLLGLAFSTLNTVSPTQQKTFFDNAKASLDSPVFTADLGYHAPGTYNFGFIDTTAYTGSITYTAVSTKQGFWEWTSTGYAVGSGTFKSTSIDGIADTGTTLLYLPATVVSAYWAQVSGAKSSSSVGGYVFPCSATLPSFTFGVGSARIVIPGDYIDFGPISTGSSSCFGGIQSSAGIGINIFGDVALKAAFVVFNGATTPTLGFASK
Assay: Fluorescence-based enzymatic inhibition assay (adapted from the HIV protease assay)
Assay type: biochemical
Details: for IC50: 0.4 nM endothiapepsin, 1.8 μM substrate, pH 4.6, 2.1% DMSO, E/Z mixture, duplicate, ± SD; for ΔGexpt, experimental Gibbs free energy of binding: derived from the experimentally determined IC50 values using the Cheng–Prusoff equation; for LE (ligand efficiency): obtained from the IC50 values using the Cheng–Prusoff equation
Excerpt: To determine their inhibitory potency against endothiapepsin, we subjected these acylhydrazone derivatives to a fluorescence-based enzymatic inhibition assay, adapted from the HIV protease assay.
Endothiapepsin was purified from Suparen® (kindly provided by DSM Food Specialties, Heerlen, The Netherlands) by exchanging the buffer to sodium acetate buffer (0.1 M, pH 4.6) using a Vivaspin 500 (Sartorius, Rotterdam, The Netherlands) with a molecular weight cutoff at 10,000 Da.
Stock solutions (100 mM in DMSO) were prepared for acylhydrazones 2–9 (mixture of E/Z isomers). The final reaction volume was 200 μL containing 0.4 nM endothiapepsin, 1.8 μM substrate and 2.1% DMSO. The final concentration of inhibitors was 1000 μM in the first well and subsequent half dilution in next 10 wells. In the same way, blanks were prepared using DMSO instead of the inhibitor stock solutions. As substrate, Abz–Thr–Ile–Nle-p-nitro-Phe–Gln–Arg–NH2 (purchased from Bachem, Bubendorf, Switzerland) was used for the fluorescence screening assay. The assay was performed with flat bottom 96-well microplates (purchased from Greiner Bio-One, Alphen aan den Rijn, The Netherlands) using a Synergy Mx microplate reader at an excitation wavelength of 337 nm and an emission wavelength of 414 nm. […] The assay buffer (0.1 M sodium acetate buffer, pH 4.6, containing 0.001% Tween 20) was premixed with the substrate and inhibitor; endothiapepsin was added directly before the measurement. As the substrate is a fluorogenic substrate, during measurement the fluorescence increased because of substrate hydrolysis by endothiapepsin. The initial slopes of the fluorescence in the acylhydrazone-containing wells were compared to the initial slope of the blanks for data analysis.

## N[C@@H](Cc1c[nH]c2ccccc12)C(=O)N/N=C/c1ccc(C(F)(F)F)cc1 [compound 2]
  IC50: 7 ± 0.5 µM
  ΔGexpt, experimental Gibbs free energy of binding: -7.48 kcal/mol
  LE (ligand efficiency): 0.28

## N[C@@H](Cc1c[nH]c2ccccc12)C(=O)N/N=C/c1cccc(C(F)(F)F)c1 [compound 3]
  IC50: 244 ± 32 µM
  ΔGexpt, experimental Gibbs free energy of binding: -5.38 kcal/mol
  LE (ligand efficiency): 0.20

## N[C@@H](Cc1c[nH]c2ccccc12)C(=O)N/N=C/c1ccccc1F [compound 4]
  IC50: 38 ± 7 µM
  ΔGexpt, experimental Gibbs free energy of binding: -6.48 kcal/mol
  LE (ligand efficiency): 0.27

## Cc1cccc(/C=N\NC(=O)[C@@H](N)Cc2c[nH]c3ccccc23)c1O [compound 5]
  IC50: 36 ± 11 µM
  ΔGexpt, experimental Gibbs free energy of binding: -6.5 kcal/mol
  LE (ligand efficiency): 0.26

## N[C@@H](Cc1c[nH]c2ccccc12)C(=O)N/N=C/c1ccccc1Br [compound 6]
  IC50: 54.5 ± 0.5 µM
  ΔGexpt, experimental Gibbs free energy of binding: -6.26 kcal/mol
  LE (ligand efficiency): 0.26

## Cc1ccccc1/C=N/NC(=O)[C@@H](N)Cc1c[nH]c2ccccc12 [compound 7]
  IC50: 59 ± 4 µM
  ΔGexpt, experimental Gibbs free energy of binding: -6.21 kcal/mol
  LE (ligand efficiency): 0.26

## Cc1cccc(C)c1/C=N/NC(=O)[C@@H](N)Cc1c[nH]c2ccccc12 [compound 8]
  IC50: 30 ± 5 µM
  ΔGexpt, experimental Gibbs free energy of binding: -6.62 kcal/mol
  LE (ligand efficiency): 0.26

## N[C@@H](Cc1c[nH]c2ccccc12)C(=O)N/N=C/c1ccccc1 [compound 9]
  ΔGexpt, experimental Gibbs free energy of binding: -6.31 kcal/mol
  LE (ligand efficiency): 0.27
